How the values were obtained:
Assay in all cases: dCypher AlphaScreen Phase A (reader titration)
Assay type in all cases: binding, human
Conditions in all cases: 100 nM peptide, 23 °C, n = 2
[1] = system: CHD4 (PPCC)
Description: (§1) Fig. 3 dCypher histone peptide-binding assays define the PTM recognition preference of PHD proteins with high sensitivity. a–h Binding curves to determine optimal reader protein concentration for full peptide library screening on the dCypher® AlphaScreen® platform (see “Methods”). X-axes are log(protein concentration (M)) at constant peptide concentration (100 nM); Y-axes are AlphaScreen counts, representing relative strength of binding (n = 2; error bars are S.D.). i Heat map represents relative binding to H3 N-terminal peptides (left) by PHD-containing GST-tagged proteins (top) using the dCypher AlphaScreen platform. Protein concentrations can be found in Additional file 5: Table S4. Binding strength is indicated by color gradient from green to yellow (stronger to weaker). The asterisk (*) by MLL5 signifies its general preference for H3K4 methylation. Alpha counts (n = 2) were normalized individually for each protein to the highest signal for each respective assay. For full dCypher peptide screen data, see Additional file 4: Table S3
(§2) We next employed a highly sensitive proximity-based AlphaScreen histone peptide assay (dCypher®) to provide a third and orthogonal approach to analyzing the histone binding preferences for a subset of the 31 PHD proteins with respect to various histone tail PTMs. In this assay, biotinylated peptides are bound to streptavidin “donor” beads and the GST-tagged reader domains bound to Glutathione “acceptor” beads. […] Initial binding assays were conducted for each fusion protein using three peptides [H3 (1–20) with K4me0, H3K4me3 or H3K9me3] to determine the optimal reader domain concentration for full peptide library studies (Fig. 3a–h; Additional file 4: Table S3 and Additional file 5: Table S4). […]
(§3) The dCypher peptide screen assay was performed as previously described. […] Plates were incubated at 23 °C in subdued lighting for 60 min and AlphaLISA signal measured on a PerkinElmer 2104 EnVision (680 nm laser excitation, 570 nm emission filter ± 50 nm bandwidth). […]

[2] = system: TRIM66 (PB)
Description: as §1, §2, §3

[3] = system: PHRF1 (RP)
Description: as §1, §2, §3

Substance: H3K9me3: H3 1-20 [Peptide H3K9me3]
- relative binding over a range of protein concentration [1]: stronger interaction with H3K9me3 compared with the unmodified peptide
- relative binding over a range of protein concentration [2]: stronger interaction with H3K9me3 compared with the unmodified peptide
- binding preference at low versus high protein concentrations [3]: distinct binding preference for the H3K9me3 peptide over the H3K4me0 peptide

From paper PMC6979384, “Characterization of the plant homeodomain (PHD) reader family for their histone tail interactions” (Epigenetics & Chromatin, 2020)
